From patent US20240140944A1, “NOVEL NAPHTHYRIDINONE DERIVATIVE HAVING INHIBITORY ACTIVITY AGAINST ECTONUCLEOTIDE PYROPHOSPHATASE-PHOSPHODIESTERASE AND USE THEREOF” (TXINNO BIOSCIENCE INC., priority 2020, published 2024)
Where a name gives a salt, the structure may show the parent alone.

Molecular target: T1, human recombinant ENPP1 enzymes (Homo sapiens, UniProt P22413)
T1 construct: purchased R & D systems
T1 sequence (P22413 1-925): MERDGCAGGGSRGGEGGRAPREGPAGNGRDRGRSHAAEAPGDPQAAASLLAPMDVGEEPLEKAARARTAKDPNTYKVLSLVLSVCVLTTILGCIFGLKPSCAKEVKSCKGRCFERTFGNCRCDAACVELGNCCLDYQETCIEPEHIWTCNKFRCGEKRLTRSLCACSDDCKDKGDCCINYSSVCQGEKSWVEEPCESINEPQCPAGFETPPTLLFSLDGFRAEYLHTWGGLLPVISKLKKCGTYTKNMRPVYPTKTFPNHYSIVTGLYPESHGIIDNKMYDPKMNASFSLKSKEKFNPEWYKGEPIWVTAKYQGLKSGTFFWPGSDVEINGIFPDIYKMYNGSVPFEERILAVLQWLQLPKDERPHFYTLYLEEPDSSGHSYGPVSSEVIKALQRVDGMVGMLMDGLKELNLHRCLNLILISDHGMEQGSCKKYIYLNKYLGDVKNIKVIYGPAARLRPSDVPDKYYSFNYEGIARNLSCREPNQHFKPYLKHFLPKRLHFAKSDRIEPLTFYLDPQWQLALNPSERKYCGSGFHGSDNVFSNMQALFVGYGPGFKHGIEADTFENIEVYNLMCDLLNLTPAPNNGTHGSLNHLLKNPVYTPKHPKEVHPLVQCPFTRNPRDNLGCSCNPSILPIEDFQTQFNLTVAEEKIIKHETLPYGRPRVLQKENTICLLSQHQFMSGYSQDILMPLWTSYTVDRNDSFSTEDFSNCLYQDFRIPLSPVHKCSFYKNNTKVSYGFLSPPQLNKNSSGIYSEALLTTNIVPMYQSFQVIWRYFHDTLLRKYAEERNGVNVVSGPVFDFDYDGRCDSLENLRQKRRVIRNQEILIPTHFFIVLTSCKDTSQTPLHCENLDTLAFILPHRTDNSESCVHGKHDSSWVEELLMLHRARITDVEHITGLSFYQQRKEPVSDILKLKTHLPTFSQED
Test: ENPP1 Enzyme Assay with cGAMP Substrate (AMP-Glo)
Format: biochemical
Conditions: human recombinant ENPP1 3 ng/reaction, cGAMP 5 μM, 37° C. 90 minutes, average of two or more tests; read-out: Enzymatic activity IC50
Procedure: ENPP1 hydrolyzes nucleotides or nucleotide derivatives to produce nucleoside-5′-monophosphate and pyrophosphate. In addition, ENPP1 hydrolyzes 2′,3′-cGAMP to produce 5′-adenosine monophosphate (AMP) and 5′-guanosine monophosphate (GMP). AMP produced from the reaction is measured using the AMP-Glo® kit (Promega). The AMP-Glo® kit contains two reagents. The first reagent terminates the AMP-producing enzymatic reaction, removes ATP and converts the produced AMP into ADP. The second reagent converts ADP to ATP which is used to generate luminescence in the luciferase reaction. The amount of luminescence measured is proportional to the amount of AMP produced by ENPP1.
The final reaction mixture contains 50 mM Tris (pH 8.5) buffer, 250 mM NaCl, 0.5 mM CaCl2), 1 μM ZnCl2, 5% glycerol and 1% DMSO. Serially diluted ENPP1 inhibitors (typically in the range of 10 μM to 0.5 nM) were pre-stored with human recombinant ENPP1 enzymes (R & D systems) at 3 ng/reaction and room temperature (RT) for 5 to 10 minutes. The reaction was initiated by addition of cGAMP (at a final concentration of 5 μM) and reacted at 37° C. for 90 minutes. At the end of the reaction, 10 μl of the AMP-Glo first reagent was added to stop the reaction and the result was stored at room temperature for 1 hour. After storage, 20 μl of an AMP detection solution (a mixture of AMP-Glo II reagent and Kinase-Glo at a ratio of 1:100) was added and stored at room temperature for 1 hour. Luminescence signals were measured using a Victor® plate reader (Perkin Elmer). The maximal activity control (containing enzymes and substrates in the presence of 1% DMSO; MAX) and the minimal activity control (containing substrates and 1% DMSO; MIN) were evaluated simultaneously. In each experiment, serially diluted reference ENPP1 inhibitors were tested as well. IC50, indicating % residual activity versus compound concentration was determined by fitting inhibition curves using the 3-parameter analysis of GraphPad Prism® software. Serially diluted samples of one compound were tested two or more times and an average IC50 of each compound was calculated.

IC50	SMILES
< 1000 nM	Nc1ccc(Nc2ccnc3[nH]c(=O)ccc23)cc1 [Example 81, 5-((4-aminophenyl)amino)-1,8-naphthyridin-2(1H)-one dihydrochloride]
< 1000 nM	NCc1ccc(Nc2ccnc3[nH]c(=O)ccc23)cc1 [Example 82, 5-((4-(aminomethyl)phenyl)amino)-1,8-naphthyridin-2(1H)-one dihydrochloride]
< 1000 nM	O=c1ccc2c(Nc3ccc4c(c3)CNC4)ccnc2[nH]1 [Example 84, dihydrochloride]
< 1000 nM	O=c1ccc2c(Nc3ccc4c(c3)CCNC4)ccnc2[nH]1 [Example 85, 5-((1,2,3,4-tetrahydroisoquinolin-6-yl)amino)-1,8-naphthyridin-2(1H)-one dihydrochloride]
1000 to 10000 nM	O=c1ccc2c(Nc3cc4c(cc3F)CNCC4)ccnc2[nH]1 [Example 86, 5-((7-fluoro-1,2,3,4-tetrahydroisoquinolin-6-yl)amino)-1,8-naphthyridin-2(1H)-one dihydrochloride]
> 10000 nM	O=c1ccc2c(Nc3ccc4c(c3)CNCCC4)ccnc2[nH]1 [Example 87, 5-((2,3,4,5-tetrahydro-1H-benzo[c]azepin-8-yl)amino)-1,8-naphthyridin-2(1H)-one dihydrochloride]
< 1000 nM	NS(=O)(=O)Nc1cccc(Nc2ccnc3[nH]c(=O)ccc23)c1 [Example 88, N-(3-((7-oxo-7,8-dihydro-1,8-naphthyridin-4-yl)amino)phenyl)sulfamide dihydrochloride]
< 1000 nM	NS(=O)(=O)NCc1cccc(Nc2ccnc3[nH]c(=O)ccc23)c1 [Example 89, N-(3-((7-oxo-7,8-dihydro-1,8-naphthyridin-4-yl)amino)benzyl)sulfamide dihydrochloride]
< 1000 nM	NS(=O)(=O)NCc1cc(Nc2ccnc3[nH]c(=O)ccc23)ccc1F [Example 90, N-(2-fluoro-5((7-oxo-7,8-dihydro-1,8-naphthyridin-4-yl)amino)benzyl)sulfamide dihydrochloride]
< 1000 nM	NS(=O)(=O)NCc1ccc(F)c(Nc2ccnc3[nH]c(=O)ccc23)c1 [Example 91, N-(4-fluoro-3-((7-oxo-7,8-dihydro-1,8-naphthyridin-4-yl)amino)benzyl)sulfamide dihydrochloride]
< 1000 nM	NS(=O)(=O)NCCc1cccc(Nc2ccnc3[nH]c(=O)ccc23)c1 [Example 92, N-(3-((7-oxo-7,8-dihydro-1,8-naphthyridin-4-yl)amino)phenethyl)sulfamide dihydrochloride]
< 1000 nM	NS(=O)(=O)NCCc1ccc(F)c(Nc2ccnc3[nH]c(=O)ccc23)c1 [Example 95, N-(4-fluoro-3-((7-oxo-7,8-dihydro-1,8-naphthyridin-4-yl)amino)phenethyl)sulfamide dihydrochloride]
1000 to 10000 nM	NS(=O)(=O)NCc1ccc(Nc2ccnc3[nH]c(=O)ccc23)cc1 [Example 98, N-(4-((7-oxo-7,8-dihydro-1,8-naphthyridin-4-yl)amino)benzyl)sulfamide dihydrochloride]
1000 to 10000 nM	NS(=O)(=O)N(Cc1ccc(Nc2ccnc3[nH]c(=O)ccc23)cc1)C1CC1 [Example 99, N-cyclopropyl-N-(4-((7-oxo-7,8-dihydro-1,8-naphthyridin-4-yl)amino)benzyl)sulfamide dihydrochloride]
1000 to 10000 nM	NS(=O)(=O)NCc1ccc(Nc2ccnc3[nH]c(=O)ccc23)c(Cl)c1 [Example 100, N-(3-chloro-4-((7-oxo-7,8-dihydro-1,8-naphthyridin-4-yl)amino)benzyl)sulfamide dihydrochloride]
< 1000 nM	NS(=O)(=O)N1Cc2ccc(Nc3ccnc4[nH]c(=O)ccc34)cc2C1 [Example 101, 5-((7-oxo-7,8-dihydro-1,8-naphthyridin-4-yl)amino)isoindolin-2-yl)sulfamide dihydrochloride]

IC50	SMILES
1000 to 10000 nM	NS(=O)(=O)N1CCCc2ccc(Nc3ccnc4[nH]c(=O)ccc34)cc2C1 [Example 103, (8-((7-oxo-7,8-dihydro-1,8-naphthyridin-4-yl)amino)-1,3,4,5-tetrahydro-2 (1H)-benzo[c]azepin-2-yl)sulfamide dihydrochloride]
1000 to 10000 nM	NS(=O)(=O)N1CCc2cc(Nc3ccnc4[nH]c(=O)ccc34)ccc2C1 [Example 104, dihydrochloride]
< 1000 nM	NS(=O)(=O)N1CCc2cc(Nc3ccnc4[nH]c(=O)ccc34)c(F)cc2C1 [Example 106, (7-fluoro-6-((7-oxo-7,8-dihydro-1,8-naphthyridin-4-yl)amino)-3,4-dihydroisoquinolin-2(1H)-yl) sulfamide dihydrochloride]
< 1000 nM	NS(=O)(=O)NC1Cc2ccc(Nc3ccnc4[nH]c(=O)ccc34)cc2C1 (stereo not shown) [Example 107, N-(5-((7-oxo-7,8-dihydro-1,8-naphthyridin-4-yl)amino)-2,3-dihydro-1H-inden-2-yl)sulfamide dihydrochloride]
> 10000 nM	CN(c1ccc2c(c1)CN(S(N)(=O)=O)CC2)c1ccnc2[nH]c(=O)ccc12 [Example 108, (7-(methyl(7-oxo-7,8-dihydro-1,8-naphthyridin-4-yl)amino)-3,4-dihydroisoquinolin-2(1H)-yl)sulfamide dihydrochloride]
< 1000 nM	NC1CCN(c2ccnc3[nH]c(=O)ccc23)CC1 [Example 113, 5-(4-aminopiperidin-1-yl)-1,8-naphthyridin-2(1H)-one hydrochloride]
< 1000 nM	NCC1CCN(c2ccnc3[nH]c(=O)ccc23)CC1 [Example 114, 5-(4-(aminomethyl)piperidin-1-yl)-1,8-naphthyridin-2(1H)-one hydrochloride]
< 1000 nM	NCCC1CCN(c2ccnc3[nH]c(=O)ccc23)CC1 [Example 115, 5-(4-(2-aminoethyl)piperidin-1-yl)-1,8-naphthyridin-2(1H)-one hydrochloride]
1000 to 10000 nM	O=c1ccc2c(N3CCC4(CCNC4)CC3)ccnc2[nH]1 [Example 117, 5-(2,8-diazaspiro[4,5]decan-8-yl)-1,8-naphthyridin-2(1H)-one hydrochloride]
> 10000 nM	Cn1c(=O)ccc2c(N3CCC(CN)CC3)ccnc21 [Example 118, 5-(4-(aminomethyl)piperidin-1-yl)-1-methyl-1,8-naphthyridin-2(1H)-one hydrochloride]
< 1000 nM	NS(=O)(=O)NC1CCN(c2ccnc3[nH]c(=O)ccc23)CC1 [Example 123, N-(1-(7-oxo-7,8-dihydro-1,8-naphthyridin-4-yl)piperidin-4-yl)sulfamide]
< 1000 nM	NS(=O)(=O)NCC1CCN(c2ccnc3[nH]c(=O)ccc23)CC1 [Example 124, N-((1-(7-oxo-7,8-dihydro-1,8-naphthyridin-4-yl)piperidin-4-yl)methyl)sulfamide]
< 1000 nM	NS(=O)(=O)NCCC1CCN(c2ccnc3[nH]c(=O)ccc23)CC1 [Example 125, N-(2-(1-(7-oxo-7,8-dihydro-1,8-naphthyridin-4-yl)piperidin-4-yl)ethyl)sulfamide]
< 1000 nM	NS(=O)(=O)N1CCC2(CCN(c3ccnc4[nH]c(=O)ccc34)CC2)C1 [Example 126, 8-(7-oxo-7,8-dihydro-1,8-naphthyridin-4-yl)-2,8-diazaspiro[4,5]decane-2-sulfamide]
1000 to 10000 nM	NS(=O)(=O)N1CCCN(c2ccnc3[nH]c(=O)ccc23)CC1 [Example 127]
